“Also recorded” adds a separate entry of the source.
Experiments:
[1] = system: DCs from murine bone marrow (CD11c+ monocytes); assay: Dendritic cell surface receptor expression (CD40, CD80, CD86, MHC Class II) by flow cytometry after cultivation with additives; type: cell-based, NOD mouse
Text: FIG. 1: Dendritic cell (CD11c+ monocytes) surface receptor expression after cultivation with various additives. Expression as indicated by the MFI of CD11+ monocyte cells stained with fluorescent antibodies towards CD40, CD80, CD86 and MHC Class II. A: comparing cells untreated (iDCs), matured with MPLA (mDCs), and cells treated with GABA, GABA and rhGAD65, and GABA and rhGAD65 matured with MPLA. B: comparing cells untreated (iDCs), matured with MPLA (mDCs), and cells treated with GABA, GABA and alhydrogel adsobed rhGAD65, and GABA and alhydrogel adsorbed rhGAD65 matured with MPLA. C: comparing cells untreated (iDCs), matured with MPLA (mDCs), and cells treated with GABA and rhGAD65 matured with MPLA, GABA and alhydrogel adsorbed rhGAD65 matured with MPLA, and cells treated with Dex and VD3 and matured with MPLA.
FIG. 1 (A, B and C) show the surface expression pattern of CD80, CD86, CD40 and MCH Class II proteins on murine DCs treated according to different protocols.
Mouse bone marrow-derived dendritic cells (BMDCs) were generated from bone marrow cells (femura) of 8-week-old NOD mouse females in complete RPMI 1640 medium (Lonza, Basel Switzerland) in the presence of GM-CSF (20 ng/ml) and IL-4 (4.5 ng/ml, PeproTech) for 6 days. Fresh medium was added on day 3 and comparator tDCs were induced by adding dexamethasone (1 μM) and vitamin D3 (0.5 ng/ml) on day 6, while mDCs were generated without tolerogenic factors, and iDCs were untreated for the entire cultivation period. Similarly for GABA testing, GABA was added on day 6 in at a concentration of 100 μM. Exposure to antigen was achieved by adding GAD65 (either pure GAD65 protein or alum adsorbed GAD65) to the cultivation mixture on day 6 along with tolerizing agents at a concentration of 5 μg/ml. […] Cells were harvested on day 8.
Mouse DCs were characterized by flowcytometry using following mAbs purchased from eBioscience; anti-CD11c-APC (clone N418), anti-CD40-PerCP-eFluor710 (clone 1C10), anti-CD80-FITC (clone 16-10A1), anti-CD86-PE (clone GL1), and anti-MHC II (I-A/I-E) (clone MS/114.15.2). Cells were stained with fluorochrome-conjugated antibodies against surface molecules and data were acquired by LSR II flow cytometers (BD Biosciences) and analyzed using FlowJo software (Tree Star).

[2] = system: CD11c+ DCs (IL-12 production); assay: Intracellular IL-12 expression of treated dendritic cells by FACS; type: cell-based, NOD mouse; conditions: with alhydrogel adsorbed rhGAD65, activated with MPLA, FIG. 2B
Text: FIG. 2: IL-12 production of treated dendritic cells. A: FACS plots showing the intracellular IL-12 expression of CD11c+ monocytes as percent IL-12+ cells of parent population; from left to right, untreated (iDCs), matured by MPLA (mDCs), tolerogenic by Dex and VD3 and tolerogenic by GABA. B: Column diagram of percent of parent numbers of the same groups.
In FIG. 2A, FACS plots of the intracellular expression of IL-12 of untreated CD11c+ DCs (iDCs), proinflammatory matured DCs (mDCs), DCs treated with Dex, VD3 and alhydrogel adsorbed rhGAD65 activated by MPLA, and DCs treated with GABA and alhydrogel adsorbed rhGAD65 activated by MPLA are shown. IL-12 is a proinflammatory cytokine, and low production is indicative of tolerogenic DCs. The IL-12+ cells are shown in the upper left quadrant of the plots.
Tolerogenically treated cells on the other hand generally have very low expression of IL-12. Both cells treated with Dex and VD3 and those treated with GABA, even though they have been activated with MPLA, show very low numbers of IL-12+ cells.
Mouse bone marrow-derived dendritic cells (BMDCs) were generated from bone marrow cells (femura) of 8-week-old NOD mouse females in complete RPMI 1640 medium (Lonza, Basel Switzerland) in the presence of GM-CSF (20 ng/ml) and IL-4 (4.5 ng/ml, PeproTech) for 6 days. […]

[3] = system: dendritic cells obtained from mouse bone marrow; conditions: compared to LPS or mouse serum albumin treatment
Method: Dendritic cells obtained from mouse bone marrow are used. In order to secure a large amount of the number of the dendritic cells, Inaba's culture method (Inaba et al., J. Exp. Med. 175:1157, 1992), which is a representative method of culturing a dendritic cell, is modified and applied to the dendritic cells. […] A tibia and a femur of a mouse aged 6 to 11 weeks are extracted, and a RPMI1640 medium is added to bone marrow of the tibia and the femur to obtain bone marrow cells therefrom. Then, hypotonic ammonium chloride-potassium (ACK) lysing buffer is used for the lysis of red blood cells. The bone marrow cells are cultured in an RPMI1640 medium containing about 10 to 20 ng/ml recombinant mouse GMCSF, about 5 to 10 ng/ml recombinant mouse IL4, 5 to 10% heat inactivated fetal bovine serum, L-glutamine, 25 mM of HEPES, penicillin, and streptomycin under conditions of 5% CO2 and a temperature of 37° C., thereby inducing differentiation into dendritic cells. The medium is replaced every 2 days with a medium containing the recombinant cytokines. After 2 and 4 days of the culture, granulocytes and lymphocytes that are floating on the culture dish are removed. After 6 days of the culture, dendritic cells that are differentiated from precursor cells attached on the bottom of the culture dish and that have characteristic protrusions in suspension are used in the experiments. […]

## NCCCC(=O)O [GABA, gamma-aminobutyric acid]
[1]; 100 μM GABA alone, FIG. 1A
  surface protein expression profile (CD80, CD86, CD40, MHC Class II): more similar to iDCs and indicative of tDCs
[1]; 100 μM GABA and stabilization with MPLA, FIG. 1C
  tolerogenic expression pattern compared to Dexamethasone, Vitamin D and MPLA protocol: comparable or better
[1]; GABA plus alhydrogel adsorbed rhGAD65, then MPLA, FIG. 1B
  surface molecule expression: keep a low surface molecule expression
[1]; GABA plus antigen GAD65 (rhGAD65), no MPLA
  surface protein expression profile (CD80, CD86, CD40, MHC Class II): remains the same; also recorded: remains indicative of tDCs
[1]; GABA plus rhGAD65, then MPLA
  surface protein expression profile (CD80, CD86, CD40, MHC Class II): increases slightly but is still much lower than mDCs; also recorded: still remains almost the same
[1]; activated by MPLA, FIG. 1C
  CD80 expression compared to Dex and VD3 treated cells: even lower
[2]
  numbers of IL-12+ cells (percentage of CD11c+ monocytes that are IL-12 positive): very low
[3]
  amount of maturation markers on the surface of the dendritic cells (CD40, CD80, CD86, MHC class II): decreased

— patent US20190359939A1, “NEW USE” (DIAMYD MEDICAL AB, priority 2015, published 2019)
